What was measured:
[1] = Ratio of IC50 towards CCK-A receptor and CCK-B receptor
[2] = target: T1, Cholecystokinin receptor type A (Rattus norvegicus, UniProt P30551); test: Inhibitory concentration against radioligand [125I]Bolton-Hunter labeled CCK-8 to cholecystokinin type A receptor in the rat pancreas
T1 sequence (P30551 whole entry): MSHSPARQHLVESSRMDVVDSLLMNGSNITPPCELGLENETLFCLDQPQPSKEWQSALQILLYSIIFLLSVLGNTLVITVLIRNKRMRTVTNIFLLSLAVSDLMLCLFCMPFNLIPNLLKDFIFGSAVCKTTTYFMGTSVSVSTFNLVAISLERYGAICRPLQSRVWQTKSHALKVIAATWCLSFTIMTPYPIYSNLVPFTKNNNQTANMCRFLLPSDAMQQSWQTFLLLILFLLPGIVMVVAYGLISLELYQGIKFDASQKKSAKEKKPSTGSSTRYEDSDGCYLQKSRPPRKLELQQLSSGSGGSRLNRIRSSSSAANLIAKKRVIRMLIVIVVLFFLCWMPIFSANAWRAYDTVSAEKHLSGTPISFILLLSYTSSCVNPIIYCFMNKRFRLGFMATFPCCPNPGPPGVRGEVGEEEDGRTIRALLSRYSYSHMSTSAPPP

[3] = target: T2, Gastrin/cholecystokinin type B receptor (Mus musculus, UniProt P56481); test: Inhibitory concentration against radioligand [125I]Bolton-Hunter labeled CCK-8 to cholecystokinin type B receptor in the mouse cerebral cortex; assay type: tissue-based
T2 sequence (P56481 whole entry): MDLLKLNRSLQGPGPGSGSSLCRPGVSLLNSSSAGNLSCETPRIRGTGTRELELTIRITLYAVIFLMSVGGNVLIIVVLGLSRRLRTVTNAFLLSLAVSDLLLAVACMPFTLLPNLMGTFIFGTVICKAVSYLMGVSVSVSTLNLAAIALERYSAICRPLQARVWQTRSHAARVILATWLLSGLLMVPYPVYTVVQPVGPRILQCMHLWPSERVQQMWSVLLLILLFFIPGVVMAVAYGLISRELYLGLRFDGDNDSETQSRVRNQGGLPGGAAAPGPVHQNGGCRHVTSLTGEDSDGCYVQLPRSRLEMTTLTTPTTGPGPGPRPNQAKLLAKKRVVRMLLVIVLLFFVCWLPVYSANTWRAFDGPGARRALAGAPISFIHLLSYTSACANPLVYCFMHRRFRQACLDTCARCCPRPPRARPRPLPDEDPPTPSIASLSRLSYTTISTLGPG

Compound | Ratio [1] | IC50 [2] [nM] | IC50 [3] [nM]
C[C@](Cc1c[nH]c2ccccc12)(NC(=O)OC1C2CC3CC(C2)CC1C3)C(=O)NC1CC2CCC1C2 (stereo in doubt; 22) [listing 1 of 2 here] | 7.5 |  | 
C[C@](Cc1c[nH]c2ccccc12)(NC(=O)OC1C2CC3CC(C2)CC1C3)C(=O)NC1CCCCC1 (some centres not stated) | 48 | 2400 | 50
C[C@](Cc1c[nH]c2ccccc12)(NC(=O)OC1C2CC3CC(C2)CC1C3)C(=O)N[C@H]1CCCCC[C@@H]1O (some centres not stated) | 65 | 1660 | 25.5
C[C@](Cc1c[nH]c2ccccc12)(NC(=O)OC1C2CC3CC(C2)CC1C3)C(=O)NC1(CO)CCCCC1 (some centres not stated) | 12.5 | 1510 | 121
C[C@](Cc1c[nH]c2ccccc12)(NC(=O)OC1C2CC3CC(C2)CC1C3)C(=O)NC(Cc1ccccc1)Cc1ccccc1 (some centres not stated) | 112 | 2240 | 19.9
C[C@](Cc1c[nH]c2ccccc12)(NC(=O)OC1C2CC3CC(C2)CC1C3)C(=O)N[C@@H]1CCCCC[C@H]1O (some centres not stated) | 267 | 1240 | 4.65
C[C@](Cc1c[nH]c2ccccc12)(NC(=O)OC1C2CC3CC(C2)CC1C3)C(=O)NC(CC(=O)O)CC(=O)O (some centres not stated) | 8.9 | 15700 | 1770
CC1CCCCC1NC(=O)[C@@](C)(Cc1c[nH]c2ccccc12)NC(=O)OC1C2CC3CC(C2)CC1C3 (some centres not stated) | 71.4 | 2780 | 39
C[C@](Cc1c[nH]c2ccccc12)(NC(=O)OC1C2CC3CC(C2)CC1C3)C(=O)NC1CCCCCC1 (some centres not stated) | 71 | 3230 | 45.5
COC(=O)CC(CC(=O)OC)NC(=O)[C@@](C)(Cc1c[nH]c2ccccc12)NC(=O)OC1C2CC3CC(C2)CC1C3 (some centres not stated) | 5.5 | 1170 | 214
C[C@](Cc1c[nH]c2ccccc12)(NC(=O)OC1C2CC3CC(C2)CC1C3)C(=O)NC1CC2CCC1C2 (stereo in doubt; 22) [listing 2 of 2 here] |  | 1250 | 166
C[C@](Cc1c[nH]c2ccccc12)(NC(=O)OC1C2CC3CC(C2)CC1C3)C(=O)NC1CCCCC1C(=O)O (some centres not stated) | 708 | 701 | 0.99
C[C@](Cc1c[nH]c2ccccc12)(NC(=O)OC1C2CC3CC(C2)CC1C3)C(=O)NC1CCCCC1C#N (some centres not stated) | 429 | 1500 | 3.5
C[C@](Cc1c[nH]c2ccccc12)(NC(=O)OC1C2CC3CC(C2)CC1C3)C(=O)N[C@H]1CCCC[C@@H]1O (some centres not stated) |  | 1940 | 

— ChEMBL document CHEMBL1131203, “Second generation "peptoid" CCK-B receptor antagonists: identification and development of N-(adamantyloxycarbonyl)-alpha-methyl-(R)-tryptophan derivative (CI-1015) with an improved pharmacokinetic profile” (J Med Chem, 1998)
